# Results taken from patent US12427183B2, “Methods of treating cancer, infectious disease, and autoimmune disease using chemokines” (New York Society for the Relief of the Ruptured and …, priority 2016, dated 2025).
# Entries after “also recorded” stand apart in the source; their conditions may differ.
# Tests used:
# Format in all cases: cell-based, human
# [1] = test system: TLR9-mediated activation of pDCs; assay: TLR9-mediated activation of purified pDCs (CpG with or without chemokines), IFN-α ELISA
# [2] = test system: healthy monocytes; assay: Cytokines in healthy monocytes with CXCL4
# [3] = test system: purified pDCs from HDs or SSc patients; assay: IFN production by purified pDCs cultured with chemokine alone; set-up: IFN production, CXCL4 alone: dose or concentration left out as unconfirmed
# Method: PBMCs were prepared using Ficoll-Paque density gradient from fresh blood under internal Institutional Review Board-approved protocols. pDCs were isolated as previously described (Guiducci et al. 2008) using either using negative depletion (Miltenyi Biotech) or following cell sorting using a BD IFNLUX cell sorter. As part of the gating strategy, neutrophils were excluded by FSC/SSC and cells positive for CD14 (CD3 and CD19 as well) were first excluded in order to prevent the contamination by TLR8 positive cells and then positively gated on HLA-DR, CD123 and BDCA4 to purify the pDCs. All BDCA4+ cells also express BDCA2 (results not shown). As a result, pure pDCs were obtained and no markers for neutrophils (CD66) or myeloid cells were found by PCR. B cells were FACS sorted as CD19+ and monocytes as CD14+ cells. PBMCs were depleted of pDCs using BDCA4 beads from Miltenyi. pDCs were cultured at 10,000-30,000 cells per well in a 96-round bottom plate and incubated at 37° C., 5% CO2 and 95% humidity. After 24 hours of culture, the supernatant was collected for ELISA or Mutiplex cytokine assays. In some culture conditions, cells were cultured with the PI3Kδ inhibitor, CAL-101 (Selleck chemicals) for 24 hours. The RNA-based TLR8 agonist, ORN8-L previously described (Guidacci et al. 2013) was synthetized by Chemgenes Corporation. For the TLR8 activation assay, pDCs were incubated in complete media alone, 200 μg/ml ORN8-L in complete media or 200 μg/ml ORN8-L+ 10 μg/ml CXCL4 (R&D systems).
# Supernatant from pDCs 24 hour culture was used for quantification of secreted chemokines and cytokines and measured with the use of an enzyme-linked immunosorbent assay (ELISA) or Luminex multiplex-beads immunoassay. CXCL4 ELISA (Ray Biotech) and IFNα, IP-10, IL-6, TNF Luminex assay (Millipore) was performed according to the manufacturer's protocol. Due to the variability in the number of cells obtained from the different patients and so we could compare the values across donors, all results were normalized to 10,000 cells. Of note, for all donors, pDCs were plated between 10,000-30,000 cells.
# When purified pDCs from HDs or SSc patients were cultured with CXCL4 alone ([…]), there was no effect on IFN production.
# (§1) 5×10^5 PBMCs or pDC-depleted PBMCs were cultured in 96 wells plate and stimulated with 0.25 μM CpG DNA with or without 10 μg/ml CXCL4, CXCL10, CXCL12 or CCL5. Freshly isolated pDCs were resuspended at 5×10^4 cells/100 μl RPMI 1640 medium (Gibco) and stimulated with the 0.25 μM CpG with/without 10 μg/ml indicated chemokines. The supernatant was harvested after 18 h and IFN-α was measured by ELISA.
# [4] = test system: PBMCs and pDC-depleted PBMCs; assay: IFN-α production in PBMCs and pDC-depleted PBMCs cultured with CpG and chemokines (ELISA); conditions: CpG 0.25 μM + chemokine 10 μg/ml
# Method: PBMCs were prepared using Ficoll-Paque density gradient (GE Healthcare) as previously described (Guiducci et al., 2008).
# pDCs were isolated from PBMCs by positive selection using BDCA4-MicroBead Kit as previously described (Guiducci et al., 2008). pDC-depleted PBMC were prepared by removing BDCA4-positive cells from PBMC using microbeads.
# as §1
# As shown above, CXCL4 can increase IFN-α production by TLR9-activated pDCs. Thus it was tested whether other chemokines may impact TLR9 signaling in pDCs. Purified pDCs were left unstimulated (Unstim.) or cultured with CpG (0.25 μM) alone or with the indicated chemokines at 10 μg/ml. IFN-α secretion was quantified by ELISA. Strikingly, it was observed that a set of chemokines, including CXCL4, CXL10, CXCL12 and CCL5, were able to superinduce TLR9-induced response by pDCs (FIG. 18A), while they had no effect when used alone (results not shown). […] This also raised questions as to the specificity and mechanism for this effect. First, as other DNA sensors have been described to induce IFN-α in immune cells (Barrat et al., 2016), it was tested to see if these chemokines altered the specificity of the CpGs for TLR9 and if the IFN-α response was restricted to pDCs. Total PBMCs or PBMCs where pDCs were depleted (PBMC-ΔpDCs) were incubated with CpGs and either CXCL4, CXCL10, CXCL12 or CCL5 and IFN-α production was quantified by ELISA.
substance,measurement,setting,value
"CXCL4: small chemokine of the CXC family, 70-amino acid protein released from alpha-granules of activated platelets",TLR9 response (IFN-α) of pDCs,"[1]; CXCL4 10 μg/ml, CpG-C 0.1 μM or CpG-B 0.25 μM, suboptimal doses, similar in HDs and SSc patients",drastically impacted
same,TLR9-induced response (IFN-α secretion) by pDCs,"[1]; CpG 0.25 μM, chemokine 10 μg/ml (Example 17)",superinduce
same,dependence of IFN-α superinduction on chemokine receptors,"[1]; with AMG487 100 nM, AMD3100 10 μg/ml, anti-CXCR7 11G8 10 μg/ml, J113863 1.5 μM or Vicriviroc 0.1 μM",independent of their chemokine receptors
same,IFN-inducible IP-10 in healthy monocytes,[2],reduces
same,IL-6 in healthy monocytes,[2],increases
same,TNF in healthy monocytes,[2],increases
same,"IFN-α secretion by pDCs, chemokine used alone","[3]; chemokine 10 μg/ml without CpG, results not shown",no effect
same,"IFN production, CXCL4 alone","[3]; purified pDCs from HDs or SSc patients, CXCL4 alone",no effect; also recorded: did not induce
same,IFN-α production in absence of the pDCs (PBMC-ΔpDCs versus total PBMCs),[4],dramatic decrease
